This is an account of results in patent US10323038B2, “Pyrazole compounds and methods of making and using same” (ABIDE THERAPEUTICS, INC., priority 2015, dated 2019).

Assay [1] addresses MAGL (Mus musculus (Mouse), UniProt O35678). The assay is described as follows: In vitro competitive activity-based protein profiling, MAGL (mouse). The class given is biochemical. As to conditions: for inhibition at 1 µM: read-out: MAGL % inh. 1 μM (mouse). In a few lines:
(§1)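 Gel-based read-out: fluorescence intensity of MAGL and FAAH bands after SDS-PAGE gave serine hydrolase activity. Proteomes at 1.0 mg/mL were pretreated 30 min at 37° C with inhibitor over a concentration range, then labelled 30 min with FP-Rh or HT-01 (stock 50 μM in DMSO).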

The target of assay [2] is FAAH (Mus musculus (Mouse), UniProt O08914). Description: In vitro competitive activity-based protein profiling, FAAH (mouse). The class given is biochemical. The conditions noted are these: for inhibition at 1 µM: read-out: FAAH % inh. 1 μM (mouse). In a few lines:
as §1

Sequence of MAGL (O35678 whole entry): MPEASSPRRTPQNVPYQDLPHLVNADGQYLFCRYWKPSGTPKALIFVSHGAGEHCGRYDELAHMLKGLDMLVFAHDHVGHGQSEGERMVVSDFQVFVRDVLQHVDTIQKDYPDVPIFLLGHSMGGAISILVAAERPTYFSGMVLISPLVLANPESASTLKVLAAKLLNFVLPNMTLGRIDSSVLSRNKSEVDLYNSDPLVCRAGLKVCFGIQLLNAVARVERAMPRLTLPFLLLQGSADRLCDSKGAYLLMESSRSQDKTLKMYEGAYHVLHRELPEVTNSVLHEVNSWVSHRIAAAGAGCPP
Sequence of FAAH (O08914 whole entry): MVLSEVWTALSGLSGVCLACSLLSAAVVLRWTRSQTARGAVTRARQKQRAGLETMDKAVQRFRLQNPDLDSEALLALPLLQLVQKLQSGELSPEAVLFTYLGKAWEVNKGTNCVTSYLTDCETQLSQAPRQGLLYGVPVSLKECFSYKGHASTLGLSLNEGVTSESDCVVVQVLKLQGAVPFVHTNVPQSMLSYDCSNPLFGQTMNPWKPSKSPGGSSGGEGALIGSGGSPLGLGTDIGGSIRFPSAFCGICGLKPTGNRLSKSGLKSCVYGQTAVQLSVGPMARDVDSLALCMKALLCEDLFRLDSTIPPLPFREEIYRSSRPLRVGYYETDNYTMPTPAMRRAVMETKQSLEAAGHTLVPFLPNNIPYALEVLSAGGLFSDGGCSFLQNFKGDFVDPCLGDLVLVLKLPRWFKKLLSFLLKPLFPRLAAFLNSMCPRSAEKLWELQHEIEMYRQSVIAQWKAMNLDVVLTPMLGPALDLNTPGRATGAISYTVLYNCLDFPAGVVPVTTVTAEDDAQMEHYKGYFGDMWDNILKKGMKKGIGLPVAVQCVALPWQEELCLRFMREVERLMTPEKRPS

A word on the IC50: it is the concentration at which inhibition is half-maximal. Low readings indicate higher potency, high ones lower potency. In the case of `CC(=O)N(C)c1cnn(C(=O)N2CC3CN(Cc4ccccc4C(F)(F)F)CC3C2)c1` (stereo not shown) [Example 96, N-methyl-N-(1-(5-(2-(trifluoromethyl)benzyl)octahydropyrrolo[3,4-c]pyrrole-2-carbonyl)-1H-pyrazol-4-yl)acetamide], in assay [1], the IC50 is at most 100 nM and the inhibition at 1 µM was at least 75%. For the same compound, in assay [2], the IC50 is at most 100 nM and the inhibition at 1 µM was at least 75%.
`CC(=O)N(C)c1cnn(C(=O)N2CC3CN(Cc4ccc(N5CCCC5)c(C(F)(F)F)c4)CC3C2)c1` (stereo not shown) [Example 97, N-methyl-N-(1-(5-(4-(pyrrolidin-1-yl)-3-(trifluoromethyl)benzyl)octahydropyrrolo[3,4-c]pyrrole-2-carbonyl)-1H-pyrazol-4-yl)acetamide]: the inhibition at 1 µM in assay [1] and in assay [2] was at least 75% in each case.
As to `CC(=O)N(C)c1cnn(C(=O)N2CC3CN(Cc4ccc(Cl)c(C(F)(F)F)c4)CC3C2)c1` (stereo not shown) [Example 98, N-(1-(5-(4-chloro-3-(trifluoromethyl)benzyl)octahydropyrrolo[3,4-c]pyrrole-2-carbonyl)-1H-pyrazol-4-yl)-N-methylacetamide], in assay [1], the IC50 was at most 100 nM and the inhibition at 1 µM is at least 75%. For the same compound, in assay [2], the IC50 was at most 100 nM and the inhibition at 1 µM is at least 75%.
Consider `CC(=O)N(C)c1cnn(C(=O)N2CC3CN(Cc4ccc(N5CCOCC5)c(C(F)(F)F)c4)CC3C2)c1` (stereo not shown) [Example 99, N-methyl-N-(1-(5-(4-morpholino-3-(trifluoromethyl)benzyl)octahydropyrrolo[3,4-c]pyrrole-2-carbonyl)-1H-pyrazol-4-yl)acetamide], for which the inhibition at 1 µM in assay [1] and in assay [2] was at least 75% in each case.
For the compound `CC(=O)N(C)c1cnn(C(=O)N2CC3CN(Cc4ccc(F)c(N5CCCC5)c4)CC3C2)c1` (stereo not shown) [Example 100, N-(1-(5-(4-fluoro-3-(pyrrolidin-1-yl)benzyl)octahydropyrrolo[3,4-c]pyrrole-2-carbonyl)-1H-pyrazol-4-yl)-N-methylacetamide], in assay [1], the IC50 is at most 100 nM and the inhibition at 1 µM was at least 75%. In assay [2], the IC50 was at most 100 nM and the inhibition at 1 µM was at least 75%.
For the compound `CC(=O)N(C)c1cnn(C(=O)N2CC3CN(Cc4ccc(N5CC6CCC(C5)O6)cc4C(F)(F)F)CC3C2)c1` (stereo not shown) [Example 101, N-(1-(5-(4-(8-oxa-3-azabicyclo[3.2.1]octan-3-yl)-2-(trifluoromethyl)benzyl)octahydropyrrolo[3,4-c]pyrrole-2-carbonyl)-1H-pyrazol-4-yl)-N-methylacetamide], the inhibition at 1 µM in assay [1] and in assay [2] was at least 75% in each case.
On to `CC(=O)N(C)c1cnn(C(=O)N2CC3CN(Cc4ccc(N5C6CCC5COC6)cc4C(F)(F)F)CC3C2)c1` (stereo not shown) [Example 102, N-(1-(5-(4-(3-oxa-8-azabicyclo[3.2.1]octan-8-yl)-2-(trifluoromethyl)benzyl)octahydropyrrolo[3,4-c]pyrrole-2-carbonyl)-1H-pyrazol-4-yl)-N-methylacetamide], for which the inhibition at 1 µM in assay [1] and in assay [2] was at least 75% throughout.
As to `CC(=O)N(C)c1cnn(C(=O)N2CC3CN(Cc4cccc(Cl)c4C)CC3C2)c1` (stereo not shown) [Example 103, N-(1-(5-(3-chloro-2-methylbenzyl)octahydropyrrolo[3,4-c]pyrrole-2-carbonyl)-1H-pyrazol-4-yl)-N-methylacetamide], in assay [1], the IC50 is at most 100 nM and the inhibition at 1 µM is at least 75%. Besides, in assay [2], the IC50 was at most 100 nM and the inhibition at 1 µM is at least 75%.
Consider `CC(=O)N(C)c1cnn(C(=O)N2CC3CN(Cc4cc(Cl)ccc4C(F)(F)F)CC3C2)c1` (stereo not shown) [Example 104, N-(1-(5-(5-chloro-2-(trifluoromethyl)benzyl)octahydropyrrolo[3,4-c]pyrrole-2-carbonyl)-1H-pyrazol-4-yl)-N-methylacetamide], for which the inhibition at 1 µM in assay [1] and in assay [2] was at least 75% each time.
On to `CC(=O)N(C)c1cnn(C(=O)N2CC3CN(Cc4cc(Cl)cc(Cl)c4)CC3C2)c1` (stereo not shown) [Example 105, N-(1-(5-(3,5-dichlorobenzyl)octahydropyrrolo[3,4-c]pyrrole-2-carbonyl)-1H-pyrazol-4-yl)-N-methylacetamide], for which, in assay [1], the IC50 was at most 100 nM and the inhibition at 1 µM was at least 75%. In assay [2], the IC50 is at most 100 nM and the inhibition at 1 µM is at least 75%.
Turning to `CC(=O)N(C)c1cnn(C(=O)N2CC3CN(Cc4cc(C(F)(F)F)ccc4Cl)CC3C2)c1` (stereo not shown) [Example 106, N-(1-(5-(2-chloro-5-(trifluoromethyl)benzyl)octahydropyrrolo[3,4-c]pyrrole-2-carbonyl)-1H-pyrazol-4-yl)-N-methylacetamide], the inhibition at 1 µM in assay [1] and in assay [2] was at least 75% each time.
With `CC(=O)N(C)c1cnn(C(=O)N2CC3CN(Cc4cccc(Cl)c4Cl)CC3C2)c1` (stereo not shown) [Example 107, N-(1-(5-(2,3-dichlorobenzyl)octahydropyrrolo[3,4-c]pyrrole-2-carbonyl)-1H-pyrazol-4-yl)-N-methylacetamide], in assay [1], the IC50 was at most 100 nM and the inhibition at 1 µM was at least 75%. Further, in assay [2], the IC50 was at most 100 nM and the inhibition at 1 µM is at least 75%.
With `CC(=O)N(C)c1cnn(C(=O)N2CC3CN(Cc4cc(C)cc(C)c4)CC3C2)c1` (stereo not shown) [Example 108, N-(1-(5-(3,5-dimethylbenzyl)octahydropyrrolo[3,4-c]pyrrole-2-carbonyl)-1H-pyrazol-4-yl)-N-methylacetamide], the IC50 in assay [1] is 100 to 1000 nM; in assay [2], at most 100 nM. Also, the inhibition at 1 µM in assay [1] and in assay [2] was at least 75% each time.
As to `CC(=O)N(C)c1cnn(C(=O)N2CC3CN(Cc4cc(Cl)ccc4Cl)CC3C2)c1` (stereo not shown) [Example 109, N-(1-(5-(2,5-dichlorobenzyl)octahydropyrrolo[3,4-c]pyrrole-2-carbonyl)-1H-pyrazol-4-yl)-N-methylacetamide], the IC50 in assay [1] and in assay [2] was at most 100 nM each time. The inhibition at 1 µM in assay [1] and in assay [2] was at least 75% throughout.
For the compound `CC(=O)N(C)c1cnn(C(=O)N2CC3CN(Cc4cc(Cl)cc(N5CCCC5)c4)CC3C2)c1` (stereo not shown) [Example 110, N-(1-(5-(3-chloro-5-(pyrrolidin-1-yl)benzyl)octahydropyrrolo[3,4-c]pyrrole-2-carbonyl)-1H-pyrazol-4-yl)-N-methylacetamide], in assay [1], the IC50 is at most 100 nM and the inhibition at 1 µM is at least 75%. In assay [2], the IC50 was at most 100 nM and the inhibition at 1 µM was at least 75%.
Turning to `CC(=O)N(C)c1cnn(C(=O)N2CC3CN(Cc4c(Cl)cccc4Cl)CC3C2)c1` (stereo not shown) [Example 111, N-(1-(5-(2,6-dichlorobenzyl)octahydropyrrolo[3,4-c]pyrrole-2-carbonyl)-1H-pyrazol-4-yl)-N-methylacetamide], in assay [1], the IC50 is at most 100 nM and the inhibition at 1 µM is at least 75%. Moreover, in assay [2], the IC50 is at most 100 nM and the inhibition at 1 µM was at least 75%.
On to `CC(=O)N(C)c1cnn(C(=O)N2CC3CN(Cc4cc(N5CCCC5)cc(C(F)(F)F)c4)CC3C2)c1` (stereo not shown) [Example 112, N-methyl-N-(1-(5-(3-(pyrrolidin-1-yl)-5-(trifluoromethyl)benzyl)octahydropyrrolo[3,4-c]pyrrole-2-carbonyl)-1H-pyrazol-4-yl)acetamide], for which, in assay [1], the IC50 is at most 100 nM and the inhibition at 1 µM is at least 75%. Also, in assay [2], the IC50 was at most 100 nM and the inhibition at 1 µM is at least 75%.
As to `CC(=O)N(C)c1cnn(C(=O)N2CC3CN(Cc4ccc(Cl)cc4Cl)CC3C2)c1` (stereo not shown) [Example 113, N-(1-(5-(2,4-dichlorobenzyl)octahydropyrrolo[3,4-c]pyrrole-2-carbonyl)-1H-pyrazol-4-yl)-N-methylacetamide], the IC50 in assay [1] and in assay [2] was at most 100 nM throughout. Moreover, the inhibition at 1 µM in assay [1] and in assay [2] was at least 75% each time.
Take `CC(=O)N(C)c1cnn(C(=O)N2CC3CN(Cc4cc(N5CCOCC5)cc(C(F)(F)F)c4)CC3C2)c1` (stereo not shown) [Example 114, N-methyl-N-(1-(5-(3-morpholino-5-(trifluoromethyl)benzyl)octahydropyrrolo[3,4-c]pyrrole-2-carbonyl)-1H-pyrazol-4-yl)acetamide]: in assay [1], the IC50 is at most 100 nM and the inhibition at 1 µM was at least 75%. Also, in assay [2], the IC50 was at most 100 nM and the inhibition at 1 µM is at least 75%.
For `CC(=O)N(C)c1cnn(C(=O)N2CC3CN(Cc4ccc(C)cc4Cl)CC3C2)c1` (stereo not shown) [Example 115, N-(1-(5-(2-chloro-4-methylbenzyl)octahydropyrrolo[3,4-c]pyrrole-2-carbonyl)-1H-pyrazol-4-yl)-N-methylacetamide], in assay [1], the half-inhibitory concentration (IC50) is at most 100 nM and the inhibition at 1 µM is at least 75%. Also, in assay [2], the IC50 is at most 100 nM and the inhibition at 1 µM was at least 75%.
For `CC(=O)N(C)c1cnn(C(=O)N2CC3CN(Cc4cc(C(F)(F)F)cc(C(F)(F)F)c4)CC3C2)c1` (stereo not shown) [Example 116, N-(1-(5-(3,5-bis(trifluoromethyl)benzyl)octahydropyrrolo[3,4-c]pyrrole-2-carbonyl)-1H-pyrazol-4-yl)-N-methylacetamide], the IC50 in assay [1] and in assay [2] was at most 100 nM each time. Besides, the inhibition at 1 µM in assay [1] and in assay [2] was at least 75% each time.
In the case of `CC(=O)N(C)c1cnn(C(=O)N2CC3CN(Cc4cccc(C(F)(F)F)c4)CC3C2)c1` (stereo not shown) [Example 117, N-methyl-N-(1-(5-(3-(trifluoromethyl)benzyl)octahydropyrrolo[3,4-c]pyrrole-2-carbonyl)-1H-pyrazol-4-yl)acetamide], in assay [1], the IC50 was at most 100 nM and the inhibition at 1 µM was at least 75%. In assay [2], the IC50 is at most 100 nM and the inhibition at 1 µM is at least 75%.
